{"source": "patent US20070128217A1", "about": "(priority 2003, published 2007)", "key": {"[1]": {"test_system": "rabbit serum obtained by immunizing a rabbit with the SARS-CoV strain Frankfurt 1", "format": "binding", "set-up": "Binding of a rabbit serum to linear peptides / Binding of a rabbit serum to looped peptides / Rabbit serum linear peptides / Rabbit serum looped peptides / Binding of a rabbit serum to linear peptides of protein N of SARS-CoV Urbani (Rabbit serum linear peptides) / Binding of a rabbit serum to looped/cyclic peptides of protein N of SARS-CoV Urbani (Rabbit serum looped peptides): unit not given here"}, "[2]": {"test_system": "antibodies in sera from SARS patients (sera 1a, 1b, 2, 6, 37, 62, London, SARS-yellow, SARS-green)", "format": "binding, human", "set-up": "Binding of serum 6 to linear peptides of protein X1 of SARS-CoV Urbani / Binding of serum 37 to linear peptides of protein X1 of SARS-CoV Urbani / Binding of serum 6 to looped/cyclic peptide (PEPSCAN-ELISA) / Binding of serum 37 to looped/cyclic peptide (PEPSCAN-ELISA) / Binding of serum 37 to looped/cyclic peptides of protein X1 of SARS-CoV Urbani / Binding of serum 6 to linear peptides of protein X2 / Binding of serum 37 to linear peptides of protein X2 / Binding of serum 37 to looped/cyclic peptides of protein X2 of SARS-CoV Urbani / Binding of serum 6 to linear peptides of protein M of SARS-CoV Urbani / Binding of serum 37 to linear peptides of protein M of SARS-CoV Urbani / Binding of serum 6 to looped/cyclic peptides of protein M of SARS-CoV Urbani / Binding of serum 37 to looped/cyclic peptides of protein M of SARS-CoV Urbani / Binding of serum 6 to linear peptides of protein X3 of SARS-CoV Urbani / Binding of serum 37 to linear peptides of protein X3 of SARS-CoV Urbani / Binding of serum 37 to looped/cyclic peptides of protein X3 of SARS-CoV Urbani / Binding of serum 6 to linear peptides of protein X4 of SARS-CoV Urbani / Binding of serum 37 to linear peptides of protein X4 of SARS-CoV Urbani / Binding of serum 37 to looped/cyclic peptides of protein X4 of SARS-CoV Urbani / Binding of serum 6 to linear peptides of protein X5 of SARS-CoV Urbani / Binding of serum 37 to linear peptides of protein X5 of SARS-CoV Urbani / Binding of serum 37 to looped/cyclic peptides of protein X5 of SARS-CoV Urbani / Binding of serum 6 to linear peptides of protein N of SARS-CoV Urbani / Binding of serum 37 to linear peptides of protein N of SARS-CoV Urbani / Binding of serum 6 to linear peptide (PEPSCAN-ELISA) / Binding of serum 1a to looped/cyclic peptides of protein N of SARS-CoV Urbani / Binding of serum 1b to looped/cyclic peptides of protein N of SARS-CoV Urbani / Binding of serum 2 to looped/cyclic peptides of protein N of SARS-CoV Urbani / Binding of serum 6 to looped/cyclic peptides of protein N of SARS-CoV Urbani / Binding of serum 37 to looped/cyclic peptides of protein N of SARS-CoV Urbani / Binding of serum 62 to looped/cyclic peptides of protein N of SARS-CoV Urbani / Binding of serum London to looped/cyclic peptides of protein N of SARS-CoV Urbani / Binding of serum SARS-green to looped/cyclic peptides of protein N of SARS-CoV Urbani: unit not given here"}, "[3]": {"test_system": "control sera (pooled serum of ten healthy LUMC hospital workers; commercial negative donor pooled serum from the Dutch bloodbank)", "format": "binding, human", "set-up": "Binding of Control serum LUMC to linear peptides / Binding of Control serum Blood-bank to linear peptides / Binding of Control serum LUMC to looped peptides / Binding of Control Serum Blood-Bank to Looped peptides / Binding of Control serum LUMC to linear peptides of the protein M of SARS-CoV Urbani / Binding of Control serum Blood-bank to linear peptides of the protein M of SARS-CoV Urbani / Binding of Control serum LUMC to looped peptides of the protein M of SARS-CoV Urbani / Binding of Control Serum Blood-Bank to Looped peptides of the protein M of SARS-CoV Urbani: unit not given here"}}, "data": [{"sequence": "VVVHGYFTEVYYQLE", "values": [{"measurement": "Binding of a rabbit serum to linear peptides", "setting": "[1]", "result": 0.1}, {"measurement": "Binding of a rabbit serum to looped peptides", "setting": "[1]", "result": 0.6}, {"measurement": "Binding of serum 1a to linear peptides of protein X1 of SARS-CoV Urbani", "setting": "[2]", "result": 0.8}, {"measurement": "Binding of serum 1a to looped/cyclic peptides of protein X1 of SARS-CoV Urbani", "setting": "[2]", "result": 0.6}, {"measurement": "Binding of serum 1b to linear peptides of protein X1 of SARS-CoV Urbani", "setting": "[2]", "result": 0.6}, {"measurement": "Binding of serum 1b to looped/cyclic peptides of protein X1 of SARS-CoV Urbani", "setting": "[2]", "result": 0.5}, {"measurement": "Binding of serum 2 to linear peptides of protein X1 of SARS-CoV Urbani", "setting": "[2]", "result": 0.6}, {"measurement": "Binding of serum 2 to looped/cyclic peptides of protein X1 of SARS-CoV Urbani", "setting": "[2]", "result": 0.5}, {"measurement": "Binding of serum 6 to linear peptides of protein X1 of SARS-CoV Urbani", "setting": "[2]", "result": 0.4}, {"measurement": "Binding of serum 6 to looped/cyclic peptides of protein X1 of SARS-CoV Urbani", "setting": "[2]", "result": 0.3}, {"measurement": "Binding of serum 37 to linear peptides of protein X1 of SARS-CoV Urbani", "setting": "[2]", "result": 0.6}, {"measurement": "Binding of serum 37 to looped/cyclic peptides of protein X1 of SARS-CoV Urbani", "setting": "[2]", "result": 0.5}, {"measurement": "Binding of serum 62 to linear peptides of protein X1 of SARS-CoV Urbani", "setting": "[2]", "result": 0.4}, {"measurement": "Binding of serum 62 to looped/cyclic peptides of protein X1 of SARS-CoV Urbani", "setting": "[2]", "result": 0.5}, {"measurement": "Binding of serum London to linear peptides of protein X1 of SARS-CoV Urbani", "setting": "[2]", "result": 0.2}, {"measurement": "Binding of serum London to looped/cyclic peptides of protein X1 of SARS-CoV Urbani", "setting": "[2]", "result": 0.2}, {"measurement": "Binding of serum SARS-green to linear peptides of protein X1 of SARS-CoV Urbani", "setting": "[2]", "result": 0.3}, {"measurement": "Binding of serum SARS-green to looped/cyclic peptides of protein X1 of SARS-CoV Urbani", "setting": "[2]", "result": 0.3}, {"measurement": "Binding of serum SARS-yellow to linear peptides of protein X1 of SARS-CoV Urbani", "setting": "[2]", "result": 0.3}, {"measurement": "Binding of serum SARS-yellow to looped/cyclic peptides of protein X1 of SARS-CoV Urbani", "setting": "[2]", "result": 0.4}, {"measurement": "Binding of Control Serum Blood-Bank to Looped peptides", "setting": "[3]", "result": 0.4}, {"measurement": "Binding of Control serum Blood-bank to linear peptides", "setting": "[3]", "result": 0.5}, {"measurement": "Binding of Control serum LUMC to linear peptides", "setting": "[3]", "result": 1.1}, {"measurement": "Binding of Control serum LUMC to looped peptides", "setting": "[3]", "result": 0.7}]}, {"sequence": "LFLTLIVFTSCELYH", "values": [{"measurement": "Rabbit serum linear peptides", "setting": "[1]", "result": 0.7}, {"measurement": "Rabbit serum looped peptides", "setting": "[1]", "result": 0.4}, {"measurement": "Binding of serum 1a to linear peptides of protein X4 of SARS-CoV Urbani", "setting": "[2]", "result": 0.7}, {"measurement": "Binding of serum 1a to looped/cyclic peptides of protein X4 of SARS-CoV Urbani", "setting": "[2]", "result": 0.9}, {"measurement": "Binding of serum 1b to linear peptides of protein X4 of SARS-CoV Urbani", "setting": "[2]", "result": 0.7}, {"measurement": "Binding of serum 1b to looped/cyclic peptides of protein X4 of SARS-CoV Urbani", "setting": "[2]", "result": 0.8}, {"measurement": "Binding of serum 2 to linear peptides of protein X4 of SARS-CoV Urbani", "setting": "[2]", "result": 0.5}, {"measurement": "Binding of serum 2 to looped/cyclic peptides of protein X4 of SARS-CoV Urbani", "setting": "[2]", "result": 0.8}, {"measurement": "Binding of serum 6 to linear peptides of protein X4 of SARS-CoV Urbani", "setting": "[2]", "result": 0.5}, {"measurement": "Binding of serum 6 to looped/cyclic peptides of protein X4 of SARS-CoV Urbani", "setting": "[2]", "result": 0.7}, {"measurement": "Binding of serum 37 to linear peptides of protein X4 of SARS-CoV Urbani", "setting": "[2]", "result": 0.7}, {"measurement": "Binding of serum 37 to looped/cyclic peptides of protein X4 of SARS-CoV Urbani", "setting": "[2]", "result": 0.9}, {"measurement": "Binding of serum 62 to linear peptides of protein X4 of SARS-CoV Urbani", "setting": "[2]", "result": 0.7}, {"measurement": "Binding of serum 62 to looped/cyclic peptides of protein X4 of SARS-CoV Urbani", "setting": "[2]", "result": 0.9}, {"measurement": "Binding of serum London to linear peptides of protein X4 of SARS-CoV Urbani", "setting": "[2]", "result": 0.6}, {"measurement": "Binding of serum London to looped/cyclic peptides of protein X4 of SARS-CoV Urbani", "setting": "[2]", "result": 0.3}, {"measurement": "Binding of serum SARS-green to linear peptides of protein X4 of SARS-CoV Urbani", "setting": "[2]", "result": 0.7}, {"measurement": "Binding of serum SARS-green to looped/cyclic peptides of protein X4 of SARS-CoV Urbani", "setting": "[2]", "result": 0.7}, {"measurement": "Binding of serum SARS-yellow to linear peptides of protein X4 of SARS-CoV Urbani", "setting": "[2]", "result": 0.6}, {"measurement": "Binding of serum SARS-yellow to looped/cyclic peptides of protein X4 of SARS-CoV Urbani", "setting": "[2]", "result": 0.6}, {"measurement": "Binding of Control Serum Blood-Bank to Looped peptides", "setting": "[3]", "result": 0.9}, {"measurement": "Binding of Control serum Blood-bank to linear peptides", "setting": "[3]", "result": 0.7}, {"measurement": "Binding of Control serum LUMC to linear peptides", "setting": "[3]", "result": 0.7}, {"measurement": "Binding of Control serum LUMC to looped peptides", "setting": "[3]", "result": 0.9}]}, {"sequence": "ITTDTGIENATFFIF", "values": [{"measurement": "Binding of a rabbit serum to linear peptides", "setting": "[1]", "result": 0.1}, {"measurement": "Binding of a rabbit serum to looped peptides", "setting": "[1]", "result": 0.6}, {"measurement": "Binding of serum 1a to linear peptides of protein X1 of SARS-CoV Urbani", "setting": "[2]", "result": 0.8}, {"measurement": "Binding of serum 1a to looped/cyclic peptides of protein X1 of SARS-CoV Urbani", "setting": "[2]", "result": 0.7}, {"measurement": "Binding of serum 1b to linear peptides of protein X1 of SARS-CoV Urbani", "setting": "[2]", "result": 0.7}, {"measurement": "Binding of serum 1b to looped/cyclic peptides of protein X1 of SARS-CoV Urbani", "setting": "[2]", "result": 0.6}, {"measurement": "Binding of serum 2 to linear peptides of protein X1 of SARS-CoV Urbani", "setting": "[2]", "result": 0.6}, {"measurement": "Binding of serum 2 to looped/cyclic peptides of protein X1 of SARS-CoV Urbani", "setting": "[2]", "result": 0.6}, {"measurement": "Binding of serum 6 to linear peptides of protein X1 of SARS-CoV Urbani", "setting": "[2]", "result": 0.5}, {"measurement": "Binding of serum 6 to looped/cyclic peptides of protein X1 of SARS-CoV Urbani", "setting": "[2]", "result": 0.5}, {"measurement": "Binding of serum 37 to linear peptides of protein X1 of SARS-CoV Urbani", "setting": "[2]", "result": 0.6}, {"measurement": "Binding of serum 37 to looped/cyclic peptides of protein X1 of SARS-CoV Urbani", "setting": "[2]", "result": 0.9}, {"measurement": "Binding of serum 62 to linear peptides of protein X1 of SARS-CoV Urbani", "setting": "[2]", "result": 0.5}, {"measurement": "Binding of serum 62 to looped/cyclic peptides of protein X1 of SARS-CoV Urbani", "setting": "[2]", "result": 0.8}, {"measurement": "Binding of serum London to linear peptides of protein X1 of SARS-CoV Urbani", "setting": "[2]", "result": 0.3}, {"measurement": "Binding of serum London to looped/cyclic peptides of protein X1 of SARS-CoV Urbani", "setting": "[2]", "result": 0.3}, {"measurement": "Binding of serum SARS-green to linear peptides of protein X1 of SARS-CoV Urbani", "setting": "[2]", "result": 0.3}, {"measurement": "Binding of serum SARS-green to looped/cyclic peptides of protein X1 of SARS-CoV Urbani", "setting": "[2]", "result": 0.6}, {"measurement": "Binding of serum SARS-yellow to linear peptides of protein X1 of SARS-CoV Urbani", "setting": "[2]", "result": 0.5}, {"measurement": "Binding of serum SARS-yellow to looped/cyclic peptides of protein X1 of SARS-CoV Urbani", "setting": "[2]", "result": 0.7}, {"measurement": "Binding of Control Serum Blood-Bank to Looped peptides", "setting": "[3]", "result": 0.6}, {"measurement": "Binding of Control serum Blood-bank to linear peptides", "setting": "[3]", "result": 0.4}, {"measurement": "Binding of Control serum LUMC to linear peptides", "setting": "[3]", "result": 0.9}, {"measurement": "Binding of Control serum LUMC to looped peptides", "setting": "[3]", "result": 0.9}]}]}
